Literature values in patent US6703367B1, “Methods for treating hot flashes and gynaecomastia” (Praecis Pharmaceuticals Inc., priority 2001, dated 2004).

Key:
gynaecomastia = conditions: for men in whom gynaecomastia was reduced: middle aged men
hot flashes = conditions: for reduce hot flashes to: progestin therapy

Molecule: C#C[C@]1(O)CC[C@H]2[C@@H]3CCC4=Cc5oncc5C[C@]4(C)[C@H]3CC[C@@]21C [DANAZOL]
- men in whom gynaecomastia was reduced (gynaecomastia): approximately 70%

Molecule: CC(=O)[C@@]1(O)CC[C@H]2[C@@H]3C[C@H](C)C4=CC(=O)CC[C@]4(C)[C@H]3CC[C@@]21C [Medroxyprgesterone]
- reduce hot flashes to (hot flashes): 75-100%

Molecule: CC(=O)O[C@]1(C(C)=O)CC[C@H]2[C@@H]3C=C(C)C4=CC(=O)CC[C@]4(C)[C@H]3CC[C@@]21C [Megestrol acetate]
- reduce hot flashes to (hot flashes): 25-85%

Molecule: CLOMIPHENE
- effect on gynaecomastia (gynaecomastia; in vivo): unsuccessful

Molecule: Medthyldopa
- decrease of hot flashes (hot flashes; in vivo): 30%

Molecule: Tamoxifen
- men in whom gynaecomastia was reduced (gynaecomastia): approximately 70%

Molecule: clonidine
- effect on hot flashes, orally administered (hot flashes; oral): varied
- effect on hot flashes, administered transdermally (hot flashes; transdermal, hot flashes due to Tamoxifen): reduced the frequency and severity of hot flashes
